Results taken from ChEMBL document CHEMBL1126672, “1,3-dioxolanylpurine nucleosides (2R,4R) and (2R,4S) with selective anti-HIV-1 activity in human lymphocytes” (J Med Chem, 1993).
pEC50, pIC50: −log10 of the molar value.

Key:
[1] = Cytotoxicity against uninfected PHA-stimulated human peripheral blood mononuclear (PBM) cells was determined.; assay type: cell-based
[2] = Antiviral activity was evaluated in mitogen-stimulated human peripheral blood mononuclear (PBM) cells infected with HIV-1 strain LAV.; assay type: functional
[3] = system: Vero; assay: Cytotoxicity against uninfected PHA-stimulated vero cells was determined.; assay type: cell-based; details: Chlorocebus sabaeus
[4] = system: CCRF-CEM; assay: Cytotoxicity against uninfected PHA-stimulated CEM cells was determined.; assay type: cell-based; details: Homo sapiens
[5] = system: CCRF-CEM; assay: Cytotoxicity against uninfected PHA-stimulated CEM cells was determined; assay type: cell-based; details: Homo sapiens
[6] = Antiviral activity was evaluated in mitogen-stimulated human peripheral blood mononuclear (PBM) cells infected with HIV-1 strain LAV; assay type: functional
[7] = system: Vero; assay: Cytotoxicity against uninfected PHA-stimulated vero cells was determined; assay type: cell-based; details: Chlorocebus sabaeus
[8] = Cytotoxicity against uninfected PHA-stimulated human peripheral blood mononuclear (PBM) cells was determined; assay type: cell-based

Row | Compound | pIC50 [1] | pEC50 [2] | pIC50 [3] | pIC50 [4] | pIC50 [5] | pEC50 [6] | pIC50 [7] | pIC50 [8]
1 | OC[C@@H]1OC[C@@H](n2cnc3c(Cl)ncnc32)O1 | < 4.00 | 4.95 | < 4.00 | 4.24 |  |  |  | 
2 | Nc1nc(Cl)nc2c1ncn2[C@@H]1CO[C@@H](CO)O1 | < 4.00 | 4.40 | < 4.00 | < 4.00 |  |  |  | 
3 | OC[C@@H]1OC[C@H](n2cnc3c(Cl)ncnc32)O1 | < 4.00 | 4.64 | < 4.00 | < 4.00 |  |  |  | 
4 | CSc1ncnc2c1ncn2[C@H]1CO[C@@H](CO)O1 |  |  |  |  | < 4.00 | 4.60 | < 4.00 | < 4.00
5 | OC[C@@H]1OC[C@H](n2cnc3c(S)ncnc32)O1 | < 4.00 | 4.58 | < 4.00 | < 4.00 |  |  |  | 
6 | CNc1nc(Cl)nc2c1ncn2[C@H]1CO[C@@H](CO)O1 | < 4.00 | 4.40 | < 4.00 | < 4.00 |  |  |  | 
7 | Nc1nc2c(ncn2[C@H]2CO[C@@H](CO)O2)c(=O)[nH]1 |  |  |  |  | < 4.00 | 7.52 | < 4.00 | < 4.00
8 | Nc1nc(Cl)nc2c1ncn2[C@H]1CO[C@@H](CO)O1 | < 4.00 | 5.77 | < 4.00 | < 4.00 |  |  |  | 
9 | Cc1cn([C@H]2C[C@H](N=[N+]=[N-])[C@@H](CO)O2)c(=O)[nH]c1=O [ZIDOVUDINE] | < 4.00 | 8.40 |  | 4.51 |  |  |  | 
